In paper PMC5218480 (PLoS ONE, 2017):

Tested on: MV-4-11 cells
Assay: Gene expression microarray analysis (Affymetrix PrimeView) and GSEA
Assay type: cell-based, human
Parameters: RFU PODN (11730768_x_at) / Fold change /veh PODN (11730768_x_at) / RFU LINC00158 (11744669_a_at) / Fold change /veh LINC00158 (11744669_a_at) / RFU DUSP10 (11751237_a_at) / Fold change /veh DUSP10 (11751237_a_at) / RFU ID3 (11757404_x_at) / Fold change /veh ID3 (11757404_x_at) / RFU PLEKHG5 (11737974_s_at) / Fold change /veh PLEKHG5 (11737974_s_at) / RFU LRRC4B (11730491_at) / Fold change /veh LRRC4B (11730491_at) / RFU GIMAP4 (11747438_a_at) / Fold change /veh GIMAP4 (11747438_a_at) / RFU KRT8 (11758183_x_at) / Fold change /veh KRT8 (11758183_x_at) / RFU CNN1 (11734310_a_at) / Fold change /veh CNN1 (11734310_a_at) / RFU VPS37D (11726825_at) / Fold change /veh VPS37D (11726825_at) / RFU C10orf10 (11716522_x_at) / Fold change /veh C10orf10 (11716522_x_at) / RFU KIR2DL2 /// KIR2DL4 /// KIR2DL5A /// KIR2DL5B /// KIR2DS1 /// KIR2DS2 /// KIR2DS3 /// KIR2DS4 /// KIR3DL3 /// KIR3DL3 /// KIR3DS1 (11738374_at) / Fold change /veh KIR2DL2 /// KIR2DL4 /// KIR2DL5A /// KIR2DL5B /// KIR2DS1 /// KIR2DS2 /// KIR2DS3 /// KIR2DS4 /// KIR3DL3 /// KIR3DL3 /// KIR3DS1 (11738374_at) / RFU C1QL1 (11718748_at) / Fold change /veh C1QL1 (11718748_at) / RFU TMPRSS4 (11747572_a_at) / Fold change /veh TMPRSS4 (11747572_a_at) / RFU HAMP (11756126_x_at) / Fold change /veh HAMP (11756126_x_at) / RFU RNFT2 (11725882_a_at) / Fold change /veh RNFT2 (11725882_a_at) / RFU NR4A2 (11747474_a_at) / Fold change /veh NR4A2 (11747474_a_at) / RFU ABCC12 (11746883_a_at) / Fold change /veh ABCC12 (11746883_a_at) / RFU TMEM136 (11760407_x_at) / Fold change /veh TMEM136 (11760407_x_at) / RFU CLDN22 /// WWC2 (11732394_at) / Fold change /veh CLDN22 /// WWC2 (11732394_at) / RFU HLA-DPB1 (11760878_x_at) / Fold change /veh HLA-DPB1 (11760878_x_at) / RFU SPINT1 (11716480_a_at) / Fold change /veh SPINT1 (11716480_a_at) / RFU GAP43 (11754022_s_at) / Fold change /veh GAP43 (11754022_s_at) / RFU A4GNT (11735810_at) / Fold change /veh A4GNT (11735810_at) / RFU PRB3 (11715151_x_at) / Fold change /veh PRB3 (11715151_x_at) / RFU TUBB4B (11761932_at) / Fold change /veh TUBB4B (11761932_at) / RFU CAPN14 (11732068_a_at) / Fold change /veh CAPN14 (11732068_a_at) / RFU TMCC2 (11721928_a_at) / Fold change /veh TMCC2 (11721928_a_at) / RFU IRGQ (11745062_a_at) / Fold change /veh IRGQ (11745062_a_at) / RFU FAM174B (11720279_a_at) / Fold change /veh FAM174B (11720279_a_at) / RFU TMPRSS4 (11748680_a_at) / Fold change /veh TMPRSS4 (11748680_a_at) / RFU FAM212B (11763350_a_at) / Fold change /veh FAM212B (11763350_a_at) / RFU PLEKHG5 (11743358_a_at) / Fold change /veh PLEKHG5 (11743358_a_at) / RFU ZSCAN30 (11745921_a_at) / Fold change /veh ZSCAN30 (11745921_a_at) / RFU CMKLR1 (11741424_a_at) / Fold change /veh CMKLR1 (11741424_a_at) / RFU LOC101060620 /// MAPK8IP1 (11723275_at) / Fold change /veh LOC101060620 /// MAPK8IP1 (11723275_at) / RFU SPTSSB (11747773_x_at) / Fold change /veh SPTSSB (11747773_x_at) / RFU PRSS12 (11739890_at) / Fold change /veh PRSS12 (11739890_at) / RFU BIN1 (11741810_x_at) / Fold change /veh BIN1 (11741810_x_at) / RFU WNT11 (11732464_a_at) / Fold change /veh WNT11 (11732464_a_at) / RFU C10orf10 (11716521_a_at) / Fold change /veh C10orf10 (11716521_a_at) / RFU C5orf56 (11738089_at) / Fold change /veh C5orf56 (11738089_at) / RFU CYB561 (11721691_x_at) / Fold change /veh CYB561 (11721691_x_at) / RFU ANKRD19P (11752326_a_at) / Fold change /veh ANKRD19P (11752326_a_at) / RFU OR2T12 /// OR2T33 /// OR2T8 (11738714_s_at) / Fold change /veh OR2T12 /// OR2T33 /// OR2T8 (11738714_s_at) / RFU VCAN (11748164_a_at) / Fold change /veh VCAN (11748164_a_at) / RFU JSRP1 (11732532_at) / Fold change /veh JSRP1 (11732532_at) / RFU KRTAP10-11 (11738290_x_at) / Fold change /veh KRTAP10-11 (11738290_x_at) / RFU MYO3A (11730013_a_at) / Fold change /veh MYO3A (11730013_a_at) / RFU EBF3 (11725865_a_at) / Fold change /veh EBF3 (11725865_a_at) / RFU CAMK2N1 (11719241_x_at) / Fold change /veh CAMK2N1 (11719241_x_at) / RFU C5orf56 (11738088_a_at) / Fold change /veh C5orf56 (11738088_a_at) / RFU OLFML3 (11715873_a_at) / Fold change /veh OLFML3 (11715873_a_at) / RFU LOC100653217 /// NTM (11731650_a_at) / Fold change /veh LOC100653217 /// NTM (11731650_a_at) / RFU MAPK11 (11762145_a_at) / Fold change /veh MAPK11 (11762145_a_at) / RFU FIZ1 (11724087_x_at) / Fold change /veh FIZ1 (11724087_x_at) / RFU OASL (11726364_x_at) / Fold change /veh OASL (11726364_x_at) / RFU SOX15 (11748057_x_at) / Fold change /veh SOX15 (11748057_x_at) / RFU CD79A (11719716_a_at) / Fold change /veh CD79A (11719716_a_at) / RFU HIST1H1D (11736915_at) / Fold change /veh HIST1H1D (11736915_at) / RFU CASKIN2 (11723855_a_at) / Fold change /veh CASKIN2 (11723855_a_at) / RFU LOC730098 (11760151_x_at) / Fold change /veh LOC730098 (11760151_x_at) / RFU OR4N2 (11742367_at) / Fold change /veh OR4N2 (11742367_at) / RFU PRRT2 (11749266_a_at) / Fold change /veh PRRT2 (11749266_a_at) / RFU SNX32 (11753110_a_at) / Fold change /veh SNX32 (11753110_a_at) / RFU CDHR5 (11726645_a_at) / Fold change /veh CDHR5 (11726645_a_at) / RFU RCAN1 (11760418_a_at) / Fold change /veh RCAN1 (11760418_a_at) / RFU FAM167A (11723789_a_at) / Fold change /veh FAM167A (11723789_a_at) / RFU FAM26E (11764081_at) / Fold change /veh FAM26E (11764081_at) / RFU ISYNA1 (11749810_s_at) / Fold change /veh ISYNA1 (11749810_s_at) / RFU ACY1 (11761880_at) / Fold change /veh ACY1 (11761880_at) / RFU 11764098_at / Fold change /veh 11764098_at / RFU SAMD14 (11745864_x_at) / Fold change /veh SAMD14 (11745864_x_at) / RFU NPB (11741838_a_at) / Fold change /veh NPB (11741838_a_at) / RFU TMPRSS6 (11731388_a_at) / Fold change /veh TMPRSS6 (11731388_a_at) / RFU KRTAP10-2 (11738614_at) / Fold change /veh KRTAP10-2 (11738614_at) / RFU ARHGAP8 /// PRR5-ARHGAP8 (11727945_x_at) / Fold change /veh ARHGAP8 /// PRR5-ARHGAP8 (11727945_x_at) / RFU KRTAP5-7 /// NADSYN1 (11734609_at) / Fold change /veh KRTAP5-7 /// NADSYN1 (11734609_at) / RFU RASL12 (11751679_a_at) / Fold change /veh RASL12 (11751679_a_at) / RFU CDKN2B (11736163_a_at) / Fold change /veh CDKN2B (11736163_a_at) / RFU PRF1 (11729649_at) / Fold change /veh PRF1 (11729649_at) / RFU, ZNF638 /// ZNF638-IT1 / Fold change vs veh, ZNF638 /// ZNF638-IT1 / RFU, PANK3 / Fold change vs veh, PANK3 / RFU, SH3YL1 / Fold change vs veh, SH3YL1 / RFU, ZEB2 / Fold change vs veh, ZEB2 / RFU, NRIP1 / Fold change vs veh, NRIP1 / RFU, PTTG1IP / Fold change vs veh, PTTG1IP / RFU, CAPN2 / Fold change vs veh, CAPN2 / RFU, MED14 / Fold change vs veh, MED14 / RFU, SNORA58 / Fold change vs veh, SNORA58 / RFU, C1orf63 / Fold change vs veh, C1orf63 / RFU, LRRFIP1 / Fold change vs veh, LRRFIP1 / RFU, NDUFAF7 / Fold change vs veh, NDUFAF7 / RFU, SLC12A2 / Fold change vs veh, SLC12A2 / RFU, IBTK / Fold change vs veh, IBTK / RFU, ESF1 / Fold change vs veh, ESF1 / Fold change vs veh, TMEM50B / RFU, TAOK1 / Fold change vs veh, TAOK1 / RFU, ACBD3 / Fold change vs veh, ACBD3 / RFU, TMA16 / Fold change vs veh, TMA16 / RFU, RWDD3 / Fold change vs veh, RWDD3 / RFU, BCAT1 / Fold change vs veh, BCAT1 / RFU, EDEM3 / Fold change vs veh, EDEM3 / RFU, TMEM33 / Fold change vs veh, TMEM33 / RFU, WDR75 / Fold change vs veh, WDR75 / RFU, AHCTF1 / Fold change vs veh, AHCTF1 / RFU, TFRC / Fold change vs veh, TFRC / RFU, ZDHHC17 / Fold change vs veh, ZDHHC17 / RFU, NOM1 / Fold change vs veh, NOM1 / RFU, ARL8B / Fold change vs veh, ARL8B / RFU, ZBTB11 / Fold change vs veh, ZBTB11 / RFU, TAMM41 / Fold change vs veh, TAMM41 / RFU, KIAA1704 /// LOC100996395 / Fold change vs veh, KIAA1704 /// LOC100996395 / RFU, ING1 / Fold change vs veh, ING1 / RFU, TRMT61B / Fold change vs veh, TRMT61B / RFU, FUBP3 / Fold change vs veh, FUBP3 / RFU, TP53 / Fold change vs veh, TP53 / RFU, TNKS2 / Fold change vs veh, TNKS2 / RFU, ZFP14 / Fold change vs veh, ZFP14 / RFU, ACTR2 / Fold change vs veh, ACTR2 / RFU, PPP3R1 / Fold change vs veh, PPP3R1 / RFU, PIK3R1 / Fold change vs veh, PIK3R1 / RFU, HNRNPA1 / Fold change vs veh, HNRNPA1 / RFU, RNF170 / Fold change vs veh, RNF170 / RFU, ZNF28 / Fold change vs veh, ZNF28 / RFU, RNGTT / Fold change vs veh, RNGTT / RFU, OGT / Fold change vs veh, OGT / RFU, BRD1 / Fold change vs veh, BRD1 / RFU, MARS / Fold change vs veh, MARS / RFU, ZNF655 / Fold change vs veh, ZNF655 / RFU, FAHD1 / Fold change vs veh, FAHD1 / RFU, BDP1 / Fold change vs veh, BDP1 / RFU, LRRCC1 / Fold change vs veh, LRRCC1 / RFU, ARID1A / Fold change vs veh, ARID1A / RFU, ZNF146 / Fold change vs veh, ZNF146 / RFU, ZNF330 / Fold change vs veh, ZNF330 / RFU, GPN3 / Fold change vs veh, GPN3 / RFU, C9orf123 / Fold change vs veh, C9orf123 / RFU, N4BP2L2 / Fold change vs veh, N4BP2L2 / RFU, ARFIP1 / Fold change vs veh, ARFIP1 / RFU, FAM179B / Fold change vs veh, FAM179B / RFU, BCL10 / Fold change vs veh, BCL10 / RFU, UHRF1BP1L / Fold change vs veh, UHRF1BP1L / RFU, BET1 / Fold change vs veh, BET1 / RFU, CNOT2 / Fold change vs veh, CNOT2 / RFU, ZNF268 / Fold change vs veh, ZNF268 / Fold change vs veh, ZNF507 / RFU, DGCR2 / Fold change vs veh, DGCR2 / RFU, WDSUB1 / Fold change vs veh, WDSUB1 / Fold change vs veh, HSP90B1 /// MIR3652 / RFU, ADSS / Fold change vs veh, ADSS / RFU, GK / Fold change vs veh, GK / RFU, ZNF148 / Fold change vs veh, ZNF148 / RFU, TAF9 / Fold change vs veh, TAF9 / RFU, SLC1A5 / Fold change vs veh, SLC1A5 / RFU, SLMO2 / Fold change vs veh, SLMO2 / RFU, ABCC4 / Fold change vs veh, ABCC4 / RFU, LOC101060439 /// RAP1B / Fold change vs veh, LOC101060439 /// RAP1B / RFU, RFX7 / Fold change vs veh, RFX7 / RFU, GTPBP10 / Fold change vs veh, GTPBP10 / RFU, CNEP1R1 / Fold change vs veh, CNEP1R1 / RFU, BIVM-ERCC5 /// ERCC5 / Fold change vs veh, BIVM-ERCC5 /// ERCC5 / RFU, ILF3 / Fold change vs veh, ILF3 / RFU 11762660_at / Fold change /veh 11762660_at / RFU VCAN (11757783_s_at) / Fold change /veh VCAN (11757783_s_at) / RFU DDX43 (11728927_at) / Fold change /veh DDX43 (11728927_at) / RFU KRT8 (11758188_x_at) / Fold change /veh KRT8 (11758188_x_at) / RFU NKD1 (11759106_at) / Fold change /veh NKD1 (11759106_at) / RFU SRD5A1 (11742802_a_at) / Fold change /veh SRD5A1 (11742802_a_at) / RFU TPSAB1 /// TPSB2 (11721975_s_at) / Fold change /veh TPSAB1 /// TPSB2 (11721975_s_at) / RFU GSTM3 (11746129_a_at) / Fold change /veh GSTM3 (11746129_a_at) / RFU IL23R (11737362_x_at) / Fold change /veh IL23R (11737362_x_at) / RFU TMEM51 (11727254_a_at) / Fold change /veh TMEM51 (11727254_a_at) / RFU PIWIL2 (11732686_x_at) / Fold change /veh PIWIL2 (11732686_x_at) / RFU ORM1 (11744905_x_at) / Fold change /veh ORM1 (11744905_x_at) / RFU CCDC152 (11743942_at) / Fold change /veh CCDC152 (11743942_at) / RFU ECM1 (11717891_a_at) / Fold change /veh ECM1 (11717891_a_at) / RFU IL23R (11748794_a_at) / Fold change /veh IL23R (11748794_a_at) / RFU TNFAIP8L3 (11732012_x_at) / Fold change /veh TNFAIP8L3 (11732012_x_at) / RFU MBOAT4 (11741988_at) / Fold change /veh MBOAT4 (11741988_at) / RFU 11764193_at / Fold change /veh 11764193_at / RFU TMEM53 (11763286_at) / Fold change /veh TMEM53 (11763286_at) / RFU MAGEB2 (11727129_at) / Fold change /veh MAGEB2 (11727129_at) / RFU TMEM200A (11744735_a_at) / Fold change /veh TMEM200A (11744735_a_at) / RFU CCDC152 (11751479_a_at) / Fold change /veh CCDC152 (11751479_a_at) / RFU FAM211A (11726209_a_at) / Fold change /veh FAM211A (11726209_a_at) / RFU RGS16 (11746705_a_at) / Fold change /veh RGS16 (11746705_a_at) / RFU VCAN (11755009_s_at) / Fold change /veh VCAN (11755009_s_at) / RFU RHOB (11743442_s_at) / Fold change /veh RHOB (11743442_s_at) / RFU RGS16 (11720943_a_at) / Fold change /veh RGS16 (11720943_a_at) / RFU RGS16 (11720944_at) / Fold change /veh RGS16 (11720944_at) / RFU, VPS4B / Fold change vs veh, VPS4B / RFU, CREB1 / Fold change vs veh, CREB1 / RFU, DNAJC13 / Fold change vs veh, DNAJC13 / RFU, GNAQ / Fold change vs veh, GNAQ / RFU, CDK5R1 / Fold change vs veh, CDK5R1 / RFU, ZRANB3 / Fold change vs veh, ZRANB3 / RFU, CUL4A / Fold change vs veh, CUL4A / RFU, CCNY / Fold change vs veh, CCNY / RFU, UFL1 / Fold change vs veh, UFL1 / RFU, COG3 / Fold change vs veh, COG3 / RFU, DIAPH2 / Fold change vs veh, DIAPH2 / RFU, SKA2 / Fold change vs veh, SKA2 / RFU, AFF3 / Fold change vs veh, AFF3 / RFU, LMF1 / Fold change vs veh, LMF1 / RFU, IPO11 / Fold change vs veh, IPO11 / RFU, DFFB / Fold change vs veh, DFFB / RFU, FOXP1 / Fold change vs veh, FOXP1 / RFU, CARD8 / Fold change vs veh, CARD8 / RFU, STRN3 / Fold change vs veh, STRN3 / RFU, ADK / Fold change vs veh, ADK / RFU, RASSF2 / Fold change vs veh, RASSF2 / RFU, WIPF1 / Fold change vs veh, WIPF1 / RFU, LARP1B / Fold change vs veh, LARP1B / RFU, RASA1 / Fold change vs veh, RASA1 / RFU, RB1 / Fold change vs veh, RB1 / RFU, PPFIA1 / Fold change vs veh, PPFIA1 / RFU, MAT2A / Fold change vs veh, MAT2A / RFU, CCT5 / Fold change vs veh, CCT5 / RFU, WDR92 / Fold change vs veh, WDR92 / RFU, CUX1 / Fold change vs veh, CUX1 / RFU, TTC7A / Fold change vs veh, TTC7A / RFU, TMEM135 / Fold change vs veh, TMEM135 / RFU, DEPTOR / Fold change vs veh, DEPTOR / RFU, CPM / Fold change vs veh, CPM / RFU, DNAJB6 / Fold change vs veh, DNAJB6 / RFU, CACNA2D3 / Fold change vs veh, CACNA2D3 / RFU, DTX4 / Fold change vs veh, DTX4 / RFU, TFCP2 / Fold change vs veh, TFCP2 / RFU, GMCL1 /// GMCL1P1 / Fold change vs veh, GMCL1 /// GMCL1P1 / RFU, AEBP2 / Fold change vs veh, AEBP2 / RFU, SNHG1 /// SNORD22 /// SNORD25 /// SNORD26 /// SNORD27 /// SNORD28 /// SNORD29 /// SNORD31 / Fold change vs veh, SNHG1 /// SNORD22 /// SNORD25 /// SNORD26 /// SNORD27 /// SNORD28 /// SNORD29 /// SNORD31 / Fold change (Aza/veh), C12orf56 (ProbeSet 11735607_a_at) / Fold change (ACY-1035/veh), C12orf56 (ProbeSet 11735607_a_at) / Fold change (Aza/veh), FGFR1OP (ProbeSet 11751329_s_at) / Fold change (ACY-1035/veh), FGFR1OP (ProbeSet 11751329_s_at) / Fold change (Aza/veh), VPS36 (ProbeSet 11739960_a_at) / Fold change (ACY-1035/veh), VPS36 (ProbeSet 11739960_a_at) / RFU SYPL1 (11715823_x_at) / Fold change /veh SYPL1 (11715823_x_at) / RFU IGFBP7 (11715501_s_at) / Fold change /veh IGFBP7 (11715501_s_at) / RFU REEP3 (11722064_at) / Fold change /veh REEP3 (11722064_at) / RFU IGLL1 (11728026_x_at) / Fold change /veh IGLL1 (11728026_x_at): dose or concentration left out as unconfirmed
Details: ProbeSet 11729384_s_at; LIST D

Nc1ncn([C@@H]2O[C@H](CO)[C@@H](O)[C@H]2O)c(=O)n1 [azacitidine]
Fold change vs veh, CCNY: 0.82
